“And” between values parts separate entries of the source, which are not always exact repeats. Equal values may be shown once.
Assay: wn = mass fraction of the nth substance listed
Conditions: Liquid, Pulse-echo method, w2 = 0.5

FC(F)C(F)(F)F [pentafluoroethane] + FCF
speed of sound
Conditions | 288.2 K | 298.2 K | 308.25 K | 318.17 K | 328.17 K | 338.16 K
1650 kPa | 500.3 m/s | – | – | – | – | –
1680 kPa | – | 440.6 m/s and 440.2 m/s and 440.3 m/s | – | – | – | –
1750 kPa | 501.7 m/s | 441.7 m/s | – | – | – | –
1880 kPa | 503.4 m/s | 444 m/s | – | – | – | –
2010 kPa | 505.1 m/s | 446 m/s | – | – | – | –
2130 kPa | – | 448.2 m/s | – | – | – | –
2170 kPa | – | – | 383.3 m/s and 383.4 m/s | – | – | –
2250 kPa | 508.2 m/s | 450 m/s | 384.9 m/s | – | – | –
2380 kPa | – | – | 387.7 m/s | – | – | –
2510 kPa | 511.3 m/s | 454 m/s | 390.5 m/s | – | – | –
2750 kPa | 514.7 m/s | 457.8 m/s | 395.6 m/s | 323.4 m/s | – | –
2760 kPa | – | – | – | 323.6 m/s | – | –
2880 kPa | – | – | – | 327.2 m/s | – | –
3010 kPa | 517.7 m/s | 461.7 m/s | 400.6 m/s | 330.8 m/s | – | –
3250 kPa | – | – | – | 337.8 m/s | – | –
3470 kPa | – | – | – | – | 257.9 m/s and 258.1 m/s and 258 m/s | –
3500 kPa | 524 m/s | 469.1 m/s | 409.9 m/s | 344.5 m/s | – | –
3590 kPa | – | – | – | – | 263.4 m/s | –
3720 kPa | – | – | – | – | 269.8 m/s | –
3860 kPa | – | – | – | – | 275.4 m/s | –
4000 kPa | 529.7 m/s | 475.9 m/s | 418.9 m/s | 356.6 m/s | 281.3 m/s | –
4250 kPa | – | – | – | – | 290.2 m/s | –
4340 kPa | – | – | – | – | – | 183.3 m/s
4410 kPa | – | – | – | – | – | 189.7 m/s
4500 kPa | 535.6 m/s | 483 m/s | 427.4 m/s | 367.9 m/s | 298.5 m/s | 200.4 m/s
4750 kPa | – | – | – | – | – | 217.6 m/s
5000 kPa | 541.1 m/s | 489.9 m/s | 435.6 m/s | 378.2 m/s | 313.4 m/s | 231.3 m/s
5500 kPa | – | – | – | – | – | 255.4 m/s
6010 kPa | 552 m/s | 502.6 m/s | 450.5 m/s | 397.4 m/s | 339.3 m/s | 273.8 m/s
7010 kPa | 562.3 m/s | 514.4 m/s | 464.7 m/s | 414.5 m/s | 360.6 m/s | 303.5 m/s
8000 kPa | 572.3 m/s | 525.7 m/s | 477.8 m/s | 429.7 m/s | 379.4 m/s | 327.5 m/s
9000 kPa | 582 m/s | 536.4 m/s | 490.2 m/s | 444.1 m/s | 396.7 m/s | 348.4 m/s
10000 kPa | 591.2 m/s | 546.7 m/s | 501.7 m/s | 457.3 m/s | 412.2 m/s | 366.8 m/s
12000 kPa | 608.7 m/s | 566.4 m/s | 523.6 m/s | 481.7 m/s | 440.2 m/s | 398.9 m/s
14000 kPa | 625.1 m/s | 584.5 m/s | 543.5 m/s | 503.8 m/s | 464.8 m/s | 426.3 m/s
16010 kPa | 640.6 m/s | 601.6 m/s and 601.3 m/s | 562.1 m/s | 524.3 m/s | 487.3 m/s | 450.8 m/s
18000 kPa | 655.7 m/s | 617.3 m/s | 579.5 m/s | 543.1 m/s | 507.4 m/s | 472.9 m/s
20000 kPa | 669.7 m/s | 632.4 m/s | 596 m/s | 560.6 m/s | 526.4 m/s | 493.2 m/s
23000 kPa | 689.6 m/s | 653.8 m/s | 619 m/s | 585.3 m/s | 552.3 m/s | 521.1 m/s
26000 kPa | 708.7 m/s | 673.7 m/s | 640 m/s | 607.9 m/s | 576.7 m/s | 546.3 m/s
29010 kPa | 727 m/s | 693 m/s | 660.1 m/s | 628.9 m/s | 598.7 m/s | 569.7 m/s
32000 kPa | 744 m/s | 711.1 m/s | 678.9 m/s | 648.5 m/s | 619.2 m/s | 591.3 m/s
35000 kPa | 760.4 m/s | 728.5 m/s | 697.2 m/s | 667.3 m/s | 638.6 m/s | 611.3 m/s
40000 kPa | 786.1 m/s | 754.9 m/s | 725.2 m/s | 696.7 m/s | 669 m/s | 642.8 m/s
45000 kPa | 810 m/s | 780.3 m/s | 751.3 m/s | 723.8 m/s | 697.4 m/s | 671.7 m/s
50000 kPa | 833 m/s | 803.7 m/s | 775.7 m/s | 749.1 m/s | 723.3 m/s | 698.8 m/s
55000 kPa | 854.6 m/s | 826.3 m/s | 798.8 m/s | 772.8 m/s | 747.8 m/s | 724.1 m/s
60000 kPa | 875.4 m/s | 847.6 m/s | 821 m/s | 795.7 m/s | 770.9 m/s | 747.7 m/s
65000 kPa | 895.5 m/s | 868.2 m/s | 841.9 m/s | 817.3 m/s | 793.1 m/s | 770.1 m/s

Conditions | speed of sound [m/s]
298.25 K | 440.4
308.25 K | 383.4
318.17 K | 323.4
